This assay has as its system C. albicans ATCC 24433. The assay can be described thus: Checkerboard MIC assay, FICI. Format: cell-based, Candida albicans. To be noted: combination with Compound 1; C. albicans ATCC 24433. The text has this: The following assay was used to determine the minimum inhibitory concentration (MIC) and fractional inhibitory concentration index (FICI) for combinations of an antifungal agent and a glycopeptide antibacterial agent. This assay and methods for calculating FICI are well known in the art. See, for example, Eliopoulos, E. G. and R. Moellering, Jr. “Antimicrobial Combinations” in Antibiotics in Laboratory Medicine, edited by V. Lorian, 4th Ed., Williams & Wilkins, Baltimore, MD, pp. 330-396 (1996); […] et al., Antimicrobial Agents and Chemotherapy 47(4):1416-1418 (2003); or […] et al., Antimicrobial Agents and Chemotherapy 46(10):3323-3326 (2002). Procedures, protocols, supplies and equipment used in this assay follow the recommendations approved and published by the National Committee for Clinical Laboratory Standards (NCCLS), Wayne, Pa. as described in NCCLS 2003, “Reference Method for Broth Dilution Antimicrobial Susceptibility Tests for Bacteria that Grow Aerobically; Approved Standard” (NCCLS document M7-A6); NCCLS 2002, “Reference Method for Broth Dilution Antifungal Susceptibility Tests of Filamentous Fungi that Grow Aerobically; Approved Standard” (NCCLS document M38-A); and NCCLS 2002 “Reference Method for Broth Dilution Antifungal Susceptibility Tests of Yeast; Approved Standards-2nd Edition” (NCCLS document M27-A2). Using a checkerboard method, a 2-fold dilution 100× final concentration master plate was prepared using a 96-well U-shape microtiter plate and an appropriate solvent. In the “checkerboard” method, a microtiter plate is divided into “columns” in which each well in the column contains the same amount of an antifungal agent (Compound A) being diluted along the x-axis, and “rows” in which each well in the row contains the same amount of a glycopeptide antibacterial agent (Compound B) being diluted on the y-axis. Also included is a row (or column) for Compound A or B alone. The dilutions used in the checkerboard are exponential (by powers of two). The result is that each well in the microtiter plate contains a unique concentration of the two compounds being tested. […] After mixing, 100 μL of 2× drug combinations were distributed into 96-well microtiter plates. […] Compound A was not added to Column 12, so Column 12 contained only Compound B. Compound B was diluted from row A starting at 6,400 μg/mL down to row G (100 μg/mL). Wells in Row A contained a final concentration of 64 μg/mL of Compound B; Row B contained a final concentration of 32 μg/mL of Compound B; Row C contained a final concentration of 16 μg/mL of Compound B; etc. Compound B was not added to Row H, so Row H only contained Compound A. […] The MIC of the glycopeptide antibacterial agent determined from this experiment was used in FIC calculations. […] RPMI-1640 without sodium bicarbonate media (GIBCO-BRL, Carlsbad, Calif.), an enriched media formulated for mammalian cells, was used according to the NCCLS guidelines for yeast and filamentous fungi susceptibility testing. The medium was buffered with 0.165 M 3-[N-Morpholino]propanesulfonic acid (MOPS) supplemented with 20 g/L glucose and pH adjusted to 7.0 with hydrogen chloride. Sabouraud Dextrose Agar ([…] plates, and Potato Dextrose Agar (PDA) plates were purchased from Hardy Diagnostic (Santa Maria, Calif.). Yeast cultures were started from -80° C. frozen stock streaked on […] incubated at 35° C. under aerobic conditions for 24 h. The […] in the refrigerator for up to 2 weeks and used regularly as a starting culture. About 24 to 48 h before each assay was run, yeasts were streaked on SDA plates for isolated colonies. To prepare the inoculum, from one to four colonies were resuspended in 5 mL of saline, and vortexed for 15 sec. […] For most yeast and mold cultures, the optical density (OD) of the suspension was adjusted to 0.11 in saline to provide 0.4×10^6 CFU/mL. However, for Fusarium moniliforme and Pseudallescheria boydii the OD of the suspension was adjusted to OD=0.17 to provide 0.4×10^6 CFU/mL. […]

Structures are written as SMILES.

As to `C[C@@H]1[C@H](O)[C@@H](C)/C=C/C=C/C=C/C=C/C=C/C=C/C=C/[C@H](O[C@@H]2O[C@H](C)[C@@H](O)[C@H](N)[C@@H]2O)C[C@@H]2O[C@](O)(C[C@@H](O)C[C@@H](O)[C@H](O)CC[C@@H](O)C[C@@H](O)CC(=O)O[C@H]1C)C[C@H](O)[C@H]2C(=O)O` [Amphotericin B], the FICI was determined as 0.19.
For `C[C@@H]1[C@H](O)[C@@H](C)/C=C/C=C/CC/C=C/C=C/C=C/C=C/C(O[C@H]2O[C@H](C)[C@@H](O)[C@H](N)[C@@H]2O)CC2O[C@](O)(CC(O)C(O)CCC(O)CC(O)CC(O)CC(=O)O[C@H]1C)CC(O)C2C(=O)O` (some centres unmarked) [Nystatin], the FICI came to 0.31.

These data come from US7521418B2, “Use of a polyene macrolide antifungal agent in combination with a glycopeptide antibacterial agent” (Theravance, Inc., priority 2003, dated 2009).
